The record followed here is patent publication EP4669337B1, “AGENTS USEFUL FOR THE PREVENTION OR TREATMENT OF ALLERGIC & INFLAMMATORY DISORDERS” (ATOPIA THERAPEUTICS SA, priority 2023, dated 2025).

For this assay, the system named is engineered human embryonic kidney (HEK-293) TGF-β reporter cells. Nature of the assay: HEK-Blue hTGFβ reporter cell assay (Smad-inducible SEAP, optical density at 650 nm). The assay is classed as cell-based. To be noted: 20 µl of a 3µM inhibitor solution in 200 µl total volume, added 1 hour before the test compound; SEQ ID NO:31 at 6.25-150 µg/ml; overnight incubation. The method, then: Polypeptides of the invention have been tested in the cells above in order to determine cell-surface receptors through which they signal and thereby induce immunotolerance. For this purpose, a peptide of the invention of SEQ ID NO:31 was administered to commercial engineered human embryonic kidney (HEK-293) TGF-β reporter cells that induce the production of Smad-inducible secreted embryonic alkaline phosphatase (SEAP) when human TGF-β triggers a signaling cascade leading to the formation of a Smad3/Smad4 complex which can be monitored by optical density at 650 nm as follows.
In a 96-well plate (200 µl total volume), 20 µl of a solution containing 3µM of the inhibitor LY-364947 in medium, or medium alone, are placed in a well, followed by the addition 160 µl of the HEK-Blue hTGFβ cell suspension. After 1 hour incubation, 20 µl of the test compound or the positive control are added to the wells. […] SEAP activity is assayed from the supernatant of HEK-Blue hTGFb cell by reading the optical density at 650 nm using a spectrophotometer after 3 hours incubation at 37°C with Quanti-blue, a SEAP detection reagent.
In this particular case, the formation of the Smad3/Smad4 complex (illustrated by the measured OD650 as shown on Figure 8) was induced by the presence of SEQ ID NO:31 at the following concentrations: 6.25, 12.5, 25, 50, 75, 100, 125, and 150 µg/ml. […]

For `c1ccc(-c2nn3c(c2-c2ccnc4cc(OCCN5CCOCC5)ccc24)CCC3)nc1` [LY2109761], the “Smad3/Smad4 signaling cascade induced by SEQ ID NO:31 (SEAP, OD650)” value is reported as “antagonized”.
